From article PMC6915728 (Nature Communications, 2019)
Where two headings read alike, the source gives them in different places.

What was measured:
[1] = tested on: bacterial species in which the gene showed activity; conditions: cited from earlier work
E. coli BW25113 ΔmlaD = experiment: MIC, serial broth dilution, mlaD knockout strain vs wild type; assay type: cell-based, Escherichia coli
Experimental: What could be the mechanism behind the antagonistic action of this pathway on membrane- versus intracellular-targeting AMPs? Since MlaD is part of a protein complex, it may lead to a loss-of-function effect upon overexpression[41],[42]. To test this, we asked whether overexpression and deletion of mlaD cause similar changes in susceptibility to a representative set of membrane- and intracellular-targeting AMPs.
Minimum inhibitory concentrations (MIC) were determined with a standard serial broth dilution technique with a minor modification. Specifically, instead of a two-fold dilution series, smaller AMP concentration steps were used (typically 1.2-fold) for two reasons. […] Second, gene overexpressions caused typically only small changes in the MICs of AMPs and therefore higher resolution was required. The protocol was as follows. From a stock solution of an AMP, 12-steps serial dilution was prepared in fresh MS medium in 96-well microtiter plates. Each AMP was represented in 11 different concentrations (3 wells per AMP concentration per strain). Three wells contained only medium to check the growth in the absence of AMP. After overnight growth in MS medium supplemented with chloramphenicol, bacterial strains were diluted 20-fold into fresh MS medium and grown until the cell density reached OD600 ~1. Cells were induced by 100 µM of IPTG and incubated for 1 h at 30 °C with continuous shaking at 300 rpm. Following incubation, approximately half-million cells were inoculated into the wells of the 96-well microtiter plate with a 96‐pin replicator. We used three independent replicates for each strain and the corresponding control. Two rows in the 96-well plate contained only MS medium in order to obtain the background OD value of the medium. Plates were incubated at 30 °C with continuous shaking at 300 rpm. After 20–24 h of incubation, OD600 values were measured in a microplate reader (Biotek Synergy 2).
A mlaD knockout strain of E. coli BW25113 carrying a kanamycin resistance cassette in the position of the gene was selected from the KEIO collection. The resistance marker was removed using plasmid-borne (pFT-A) expression of FLP recombinase leading to excision of the kanamycin resistance cassette. Cassette excision was verified by a polymerase chain reaction using the primers mlaD_del_ver_Fw (5′- […]) and mlaD_del_ver_Rev (5′- […]).
Supplementary Figure 13. […] The bacterial susceptibility of the mutant to AMPs was tested by MIC determination. Growth is shown relative to growth in the absence of the corresponding AMP. The blue line represents the mlaD knockout strain and the orange line represents the control strain (wild-type E. coli BW25113). Error bars indicate the standard errors based on three biological replicates. Source data are provided in the Source Data file.

[2] = tested on: AMP-evolved E. coli lines; conditions: ref Spohn et al 2019, cited from earlier work
Excerpt: Supplement 41467_2019_13618_MOESM13_ESM.xlsx, sheet "Figure 6 and S15" | column: A comprehensive dataset of antimicrobial susceptibility of AMP-adapted lines to antimicrobial peptides (AMPs).

TSSPPAAVVVRRRRRRRRRRRRRRRRRRR [PROA, Protamine, source herring, purchased from Sigma-Aldrich; cluster C3]
Gene that modulates bacterial susceptibility to the AMP ([1]; Burkholderia cenocepacia, ref http://www.microbiologyresearch.org/docserver/fulltext/micro/155/9/2818.pdf?expires=1468919235&id=id&accname=guest&checksum=2CEA64BA8195145BE72C98BB20076627): zmpA | Gene that modulates bacterial susceptibility to the AMP ([1]; Burkholderia cenocepacia, ref http://www.microbiologyresearch.org/docserver/fulltext/micro/155/9/2818.pdf?expires=1468919235&id=id&accname=guest&checksum=2CEA64BA8195145BE72C98BB20076628): zmpB | Gene that modulates bacterial susceptibility to the AMP ([1]; Enterobacteriaceae, ref https://www.ncbi.nlm.nih.gov/pmc/articles/PMC3264287/, https://onlinelibrary.wiley.com/doi/full/10.1111/j.1348-0421.2010.00238.x, https://jb.asm.org/content/180/15/4002.full): ompT | Gene that modulates bacterial susceptibility to the AMP ([1]; Klebsiella pneumoniae, ref http://iai.asm.org/content/72/12/7107.full.pdf+html): cps | Gene that modulates bacterial susceptibility to the AMP ([1]; Proteus mirabilis, ref http://aac.asm.org/content/45/7/2030.long): sapD | Gene that modulates bacterial susceptibility to the AMP ([1]; Pseudomonas aeruginosa, Salmonella typhimurium, Escherichia coli, ref http://www.sciencemag.org/content/286/5444/1561.full.pdf, http://onlinelibrary.wiley.com/doi/10.1111/j.1365-2958.1995.tb02299.x/abstract, http://www.ncbi.nlm.nih.gov/pmc/articles/PMC50673/pdf/pnas01098-0300.pdf, https://jb.asm.org/content/jb/182/14/4077.full.pdf): phoP (PhoPQ) | Gene that modulates bacterial susceptibility to the AMP ([1]; Salmonella Typhimurium LT2, ref https://doi.org/10.1093/jac/dkq059): hemC (hem operon) | Gene that modulates bacterial susceptibility to the AMP ([1]; Salmonella enterica serovar Typhimurium, ref http://www.microbiologyresearch.org/docserver/fulltext/micro/154/2/666.pdf?expires=1487718158&id=id&accname=guest&checksum=D8B884D02A8B2A8619216A48E0826377): yejA | Gene that modulates bacterial susceptibility to the AMP ([1]; Salmonella enterica, Escherichia coli, ref http://www.ncbi.nlm.nih.gov/pmc/articles/PMC395316/pdf/emboj00065-0046.pdf http://www.ncbi.nlm.nih.gov/pmc/articles/PMC538956/pdf/1013-04.pd): sapA | Gene that modulates bacterial susceptibility to the AMP ([1]; Salmonella typhimurium, Escherichia coli, ref https://www.ncbi.nlm.nih.gov/pmc/articles/PMC3037666/, https://www.ncbi.nlm.nih.gov/pmc/articles/PMC3837802/pdf/zam7770.pdf): cpxA (CpxA/CpxR) | Gene that modulates bacterial susceptibility to the AMP ([1]; Salmonella typhimurium, Escherichia coli, ref https://www.ncbi.nlm.nih.gov/pmc/articles/PMC3037666/, https://www.ncbi.nlm.nih.gov/pmc/articles/PMC4808223/): amiA, amiC | Gene that modulates bacterial susceptibility to the AMP ([1]; Salmonella typhimurium, ref https://www.ncbi.nlm.nih.gov/pmc/articles/PMC3037666/): tatA | Gene that modulates bacterial susceptibility to the AMP ([1]; Staphylococcus aureus, SalmonellaTyphimurium, ref http://ac.els-cdn.com/S0022202X15369608/1-s2.0-S0022202X15369608-main.pdf?_tid=6fa51c80-693e-11e6-b18c-00000aacb362&acdnat=1471962936_8118358d97a056d7d78b5e8b4ca8d03b, https://www.sciencedirect.com/science/article/pii/S0928824401002917): hemB | Average relative change in MIC (E. coli BW25113 ΔmlaD; mlaD deletion strain vs control E. coli BW25113, average of 3 replicates): 0.43

RWCFRVCYRGICYRKCR [TPII, Tachyplesin II, antimicrobial peptide from Japanese horseshoe crab; disrupts cell membrane; cluster C1]
Average relative change in MIC (E. coli BW25113 ΔmlaD; mlaD deletion strain relative to control (E. coli BW25113), 3 replicates each, from optical density values of serial dilution plates, AMP in µg ml-1): 1.35 | Relative change in MIC (MIC of the AMP-adpated line / MIC of the ancestral strain) ([2]; AMP-adapted line BAC5_3): 1 | Relative change in MIC (MIC of the AMP-adpated line / MIC of the ancestral strain) ([2]; AMP-adapted line BAC5_5): 1 | Relative change in MIC (MIC of the AMP-adpated line / MIC of the ancestral strain) ([2]; AMP-adapted line BAC5_7): 1.1 | Relative change in MIC (MIC of the AMP-adpated line / MIC of the ancestral strain) ([2]; AMP-adapted line BAC5_10): 1.1 | Relative change in MIC (MIC of the AMP-adpated line / MIC of the ancestral strain) ([2]; AMP-adapted line CAP18_2): 1.1 | Relative change in MIC (MIC of the AMP-adpated line / MIC of the ancestral strain) ([2]; AMP-adapted line CAP18_5): 1 | Relative change in MIC (MIC of the AMP-adpated line / MIC of the ancestral strain) ([2]; AMP-adapted line CAP18_6): 1 | Relative change in MIC (MIC of the AMP-adpated line / MIC of the ancestral strain) ([2]; AMP-adapted line CAP18_8): 1.1 | Relative change in MIC (MIC of the AMP-adpated line / MIC of the ancestral strain) ([2]; AMP-adapted line CAP18_10): 1 | Relative change in MIC (MIC of the AMP-adpated line / MIC of the ancestral strain) ([2]; AMP-adapted line HBD3_3): 1.2 | Relative change in MIC (MIC of the AMP-adpated line / MIC of the ancestral strain) ([2]; AMP-adapted line HBD3_6): 1.2 | Relative change in MIC (MIC of the AMP-adpated line / MIC of the ancestral strain) ([2]; AMP-adapted line HBD3_8): 1.2 | Relative change in MIC (MIC of the AMP-adpated line / MIC of the ancestral strain) ([2]; AMP-adapted line HBD3_10): 1.2 | Relative change in MIC (MIC of the AMP-adpated line / MIC of the ancestral strain) ([2]; AMP-adapted line LL37_1): 1.1 | Relative change in MIC (MIC of the AMP-adpated line / MIC of the ancestral strain) ([2]; AMP-adapted line LL37_3): 1.1 | Relative change in MIC (MIC of the AMP-adpated line / MIC of the ancestral strain) ([2]; AMP-adapted line LL37_6): 1 | Relative change in MIC (MIC of the AMP-adpated line / MIC of the ancestral strain) ([2]; AMP-adapted line LL37_7): 1 | Relative change in MIC (MIC of the AMP-adpated line / MIC of the ancestral strain) ([2]; AMP-adapted line LL37_10): 1 | Relative change in MIC (MIC of the AMP-adpated line / MIC of the ancestral strain) ([2]; AMP-adapted line PEX_1): 1.1 | Relative change in MIC (MIC of the AMP-adpated line / MIC of the ancestral strain) ([2]; AMP-adapted line PEX_4): 1.2 | Relative change in MIC (MIC of the AMP-adpated line / MIC of the ancestral strain) ([2]; AMP-adapted line PEX_5): 1.1 | Relative change in MIC (MIC of the AMP-adpated line / MIC of the ancestral strain) ([2]; AMP-adapted line PEX_6): 1 | Relative change in MIC (MIC of the AMP-adpated line / MIC of the ancestral strain) ([2]; AMP-adapted line PEX_7): 1 | Relative change in MIC (MIC of the AMP-adpated line / MIC of the ancestral strain) ([2]; AMP-adapted line PR39_1): 1 | Relative change in MIC (MIC of the AMP-adpated line / MIC of the ancestral strain) ([2]; AMP-adapted line PR39_2): 0.9 | Relative change in MIC (MIC of the AMP-adpated line / MIC of the ancestral strain) ([2]; AMP-adapted line PR39_5): 0.9 | Relative change in MIC (MIC of the AMP-adpated line / MIC of the ancestral strain) ([2]; AMP-adapted line PR39_7): 0.9 | Relative change in MIC (MIC of the AMP-adpated line / MIC of the ancestral strain) ([2]; AMP-adapted line PR39_10): 0.9 | Relative change in MIC (MIC of the AMP-adpated line / MIC of the ancestral strain) ([2]; AMP-adapted line PROA_2): 1.1 | Relative change in MIC (MIC of the AMP-adpated line / MIC of the ancestral strain) ([2]; AMP-adapted line PROA_3): 0.8 | Relative change in MIC (MIC of the AMP-adpated line / MIC of the ancestral strain) ([2]; AMP-adapted line PROA_7): 1 | Relative change in MIC (MIC of the AMP-adpated line / MIC of the ancestral strain) ([2]; AMP-adapted line PROA_8): 1 | Relative change in MIC (MIC of the AMP-adpated line / MIC of the ancestral strain) ([2]; AMP-adapted line PROA_9): 1.1 | Relative change in MIC (MIC of the AMP-adpated line / MIC of the ancestral strain) ([2]; AMP-adapted line PXB_2): 1.1 | Relative change in MIC (MIC of the AMP-adpated line / MIC of the ancestral strain) ([2]; AMP-adapted line PXB_5): 1 | Relative change in MIC (MIC of the AMP-adpated line / MIC of the ancestral strain) ([2]; AMP-adapted line PXB_6): 1.1 | Relative change in MIC (MIC of the AMP-adpated line / MIC of the ancestral strain) ([2]; AMP-adapted line PXB_8): 1 | Relative change in MIC (MIC of the AMP-adpated line / MIC of the ancestral strain) ([2]; AMP-adapted line PXB_10): 1.1
